From ChEMBL document CHEMBL5260795, “Antifungal potential of marine natural products” (Eur J Med Chem, 2017)
In brackets after ≈: the same amount, converted by molar mass.

Key:
[1] = test system: Candida albicans; assay: Antifungal activity against wild type Candida albicans; type: functional, organism-based
[2] = test system: Candida albicans; assay: Antifungal activity against amphotericin-B-resistant Candida albicans; type: functional, organism-based
[3] = test system: Candida tropicalis; assay: Antifungal activity against Candida tropicalis assessed as fungal growth inhibition; type: functional
[4] = test system: Nannizzia gypsea; assay: Antifungal activity against Microsporum gypseum ATCC31388; type: functional
[5] = test system: Aspergillus fumigatus; assay: Antimicrobial activity against Aspergillus fumigatus; type: functional
[6] = test system: Rhagastis acuta; assay: Antifungal activity against Rhagastis acuta measured after 3 to 4 days by agar plate diffusion method; type: functional; conditions: time 3-4 day
[7] = test system: Ogataea angusta; assay: Antifungal activity against Pichia angusta measured after 3 to 4 days by agar plate diffusion method; type: functional; conditions: time 3-4 day
[8] = test system: Candida albicans; assay: Antifungal activity against Candida albicans measured after 3 to 4 days by agar plate diffusion method; type: functional; conditions: time 3-4 day
[9] = test system: Aspergillus niger; assay: Antifungal activity against Aspergillus niger measured after 3 to 4 days by agar plate diffusion method; type: functional; conditions: time 3-4 day
[10] = test system: Cryptococcus neoformans; assay: Antifungal activity against Cryptococcus neoformans measured after 3 to 4 days by agar plate diffusion method; type: functional; conditions: time 3-4 day
[11] = test system: Botrytis fabae; assay: Antifungal activity against Botrytis fabae measured after 3 to 4 days by agar plate diffusion method; type: functional; conditions: time 3-4 day
[12] = test system: Fusarium graminearum; assay: Antimicrobial activity against Fusarium graminearum; type: functional
[13] = test system: Candida albicans; assay: Antifungal activity against Candida albicans; type: functional, organism-based
[14] = test system: Trichophyton rubrum; assay: Antimicrobial activity against Trichophyton rubrum; type: functional, organism-based
[15] = test system: Aspergillus; assay: Antimicrobial activity against Aspergillus; type: functional
[16] = test system: Alternaria brassicae; assay: Antifungal activity against Alternaria brassicae assessed as inhibition of fungal growth; type: functional
[17] = test system: Cryptococcus neoformans; assay: Antifungal activity against Cryptococcus neoformans var. grubii assessed as fungal growth inhibition; type: functional
[18] = test system: Epidermophyton floccosum; assay: Antifungal activity against Epidermophyton floccosum measured after 96 hrs by two fold serial dilution technique; type: functional
[19] = test system: Trichophyton mentagrophytes; assay: Antifungal activity against Trichophyton mentagrophytes measured after 96 hrs by two fold serial dilution technique; type: functional
[20] = test system: Nannizzia gypsea; assay: Antifungal activity against Microsporum gypseum measured after 96 hrs by two fold serial dilution technique; type: functional
[21] = test system: Aspergillus niger; assay: Antifungal activity against Aspergillus niger measured after 96 hrs by two fold serial dilution technique; type: functional
[22] = test system: Aspergillus fumigatus; assay: Antifungal activity against Aspergillus fumigatus measured after 96 hrs by two fold serial dilution technique; type: functional
[23] = test system: Fusarium oxysporum; assay: Antifungal activity against Fusarium oxysporum measured after 96 hrs by two fold serial dilution technique; type: functional
[24] = test system: Candida albicans; assay: Antifungal activity against Candida albicans measured after 96 hrs by two fold serial dilution technique; type: functional
[25] = test system: Rhodotorula glutinis; assay: Antimicrobial activity against Rhodotorula glutinis; type: functional
[26] = test system: Saccharomyces cerevisiae; assay: Antimicrobial activity against Saccharomyces cerevisiae; type: functional
[27] = test system: Candida albicans; assay: Antimicrobial activity against Candida albicans; type: functional
[28] = test system: Lindra thalassiae; assay: Antifungal activity against Lindra thalassiae assessed as lethal dose; type: functional; conditions: Lindriella thalassiae; read-out: LD50 (the source's name)
[29] = test system: Candida albicans; assay: Antifungal activity against Candida albicans ATCC 24433; type: functional

With `CC(/C=C/c1ccccc1)=C\[C@H](O)[C@@H]1CC(=O)N[C@@H](CO)C(=O)NC2Cn3cc([n+]([C@@H]4O[C@H](CO)[C@H](O)[C@H](O)[C@H]4O)c3)CC(NC(=O)CCC[C@@H](C(=O)[O-])NC(=O)[C@@H](O)CNC(=O)[C@H](Cc3ccc(Br)cc3)NC(=O)[C@H]([C@@H](O)C(N)=O)NC(=O)[C@H](CC(N)=O)NC2=O)C(=O)N[C@@H]([C@H](C)O)C(=O)N[C@@H](CO)C(=O)N[C@@H](Cc2ccccc2)C(=O)N1` (stereo not given in full) the IC50 [1] was 7.84 µg/mL (≈ 4.52 µM) and the IC50 [2] was 3.49 µg/mL (≈ 2.01 µM).
With `C=C(C)CCC[C@@]1(C)OC(=O)[C@]23CC=C4C(=CC[C@H]5C(C)(C)[C@@H](O[C@@H]6OC[C@@H](O[C@@H]7O[C@H](CO)[C@@H](O)[C@H](O[C@@H]8O[C@H](CO)[C@@H](O)[C@H](O)[C@H]8O)[C@H]7O)[C@H](O)[C@H]6O[C@@H]6O[C@H](CO)[C@@H](O[C@@H]7OC[C@@H](O)[C@H](O[C@@H]8O[C@H](CO)[C@@H](O)[C@H](OC)[C@H]8O)[C@H]7O)[C@H](O)[C@H]6O)CC[C@]45C)[C@@]2(C)CC(=O)[C@@H]13` the MIC [3] was 1.4 µM (≈ 1.95 µg/mL) and the MIC [4] was 1.4 µM (≈ 1.95 µg/mL).
Compound `COc1ccc(/C=C/CCCC[C@H](C)[C@H](O)[C@@H](O)[C@H]2NC(=O)C[C@@H](O)CNC(=O)CNC(=O)[C@@H](Cc3c(C(=O)O)[nH]c4ccccc34)NC(=O)CN(C)C(=O)C[C@H]3NC(=O)C[C@H]3NC(=O)[C@H]2O)cc1` has an MIC [5] of 0.6 µg/mL (≈ 0.623 µM).
Work on `CC[C@@H](CC(=O)C(Cl)Cl)[C@H](C)c1ccc([N+](=O)[O-])cc1` yielded an MIC [6] of 0.1 µg/mL (≈ 0.314 µM), an MIC [7] of 0.1 µg/mL (≈ 0.314 µM) and an MIC [8] of 0.1 µg/mL (≈ 0.314 µM). It also gave an MIC [9] of 0.1 µg/mL (≈ 0.314 µM), an MIC [10] of 0.1 µg/mL (≈ 0.314 µM) and an MIC [11] of 0.1 µg/mL (≈ 0.314 µM).
With `CC(C)C1=C2N=C3OC=CC=C[C@@]34OC[C@H]3O[C@@]4(OC3(C)C)N2[C@@H](Cc2ccccc2)C(=O)N1` the MIC [12] was 4 µg/mL (≈ 8.63 µM).
`C=C[C@@H]1C[C@H](C)C[C@H](C)[C@H]1c1c(O)ccn(O)c1=O` showed an IC50 [13] of 6.9 µg/mL (≈ 26.2 µM) and an IC50 [14] of 1.07 µg/mL (≈ 4.06 µM).
In the case of `COc1ccc(/C=C/CCCC[C@H](C)[C@H](O)[C@@H](O)[C@H]2NC(=O)C[C@@H](O)CNC(=O)CNC(=O)[C@@H](Cc3c(C(=O)O)[nH]c4ccccc34)NC(=O)CN(C)C(=O)C[C@H]3NC(=O)[C@H](O)[C@H]3NC(=O)[C@H]2O)cc1`, the MIC [5] is reported as 1.3 µg/mL (≈ 1.33 µM).
`COc1c(Br)cc(Br)cc1Oc1c(O)cc(Br)cc1Br` gave an MIC [15] of 1.95 µg/mL (≈ 3.67 µM).
For `COc1ccc2c(c1OC)O[C@]1(C(=O)N3O[C@@H]4C(=CC=C[C@H]4O)C[C@@]3(SC)C(=O)N1C)[C@@H]2SC`, the MIC [16] was 4 µg/mL (≈ 7.9 µM).
Compound `COC(=O)CCC[C@@H]1CC[C@@H](C#C/C=C/CCCCCC/C=C/Br)O1` has an MIC [17] of 4 µg/mL (≈ 9.72 µM).
Compound `CC(=O)OCc1cc(=O)occ1O` has an MIC [18] of 1 µg/mL (≈ 5.43 µM), an MIC [19] of 1 µg/mL (≈ 5.43 µM) and an MIC [20] of 1 µg/mL (≈ 5.43 µM). It also gave an MIC [21] of 1 µg/mL (≈ 5.43 µM), an MIC [22] of 1 µg/mL (≈ 5.43 µM) and an MIC [23] of 1 µg/mL (≈ 5.43 µM). For the same compound, the MIC [24] was 1 µg/mL (≈ 5.43 µM).
`CO[C@H]1C(=O)N[C@]2(O)CC(=O)N(C)CC(=O)N[C@H](Cc3c[nH]c4cc(Cl)ccc34)C(=O)NCC(=O)NC[C@H](O)CC(=O)N[C@H]([C@@H](O)[C@@H](O)C/C=C/C=C/c3ccccc3)[C@@H](O)C(=O)N[C@@H]12` gave an MIC [25] of 0.6 µg/mL (≈ 0.648 µM), an MIC [26] of 1.6 µg/mL (≈ 1.73 µM) and an MIC [27] of 3.1 µg/mL (≈ 3.35 µM).
Compound `CC(=O)OC[C@@]1(COS(=O)(=O)[O-])C(=O)CC[C@]23C[C@]24CC[C@]2(C)[C@@H]([C@H](C)CC(=O)CC(C)C)CC[C@@]2(C)[C@H]4CC[C@@H]13.[Na+]` has an LC50 [28] of 0.03 µg/mL.
`CO[C@H](c1ccc(O)cc1)[C@@H](NC(=O)[C@H](CCC(N)=O)NC(=O)[C@H](CC(C)C)NC(=O)[C@@H](CCCNC(=N)N)NC(=O)[C@H](NC(=O)[C@H](NC(=O)[C@@H](NC(=O)[C@H](O)[C@H](O)[C@H](CCCNC(=N)N)NC(=O)[C@@H](C)NC(=O)[C@H](C)[C@H](O)[C@H](C)CC(C)C)[C@@H](C)CC(N)=O)[C@@H](C)O)[C@@H](C)O)C(=O)N(C)[C@@H](C)C(=O)O` showed an MIC [29] of 0.15 µg/mL (≈ 0.1 µM).
